Test results: ChEMBL document CHEMBL3885861, “Open TG-GATES”

Organism: Rattus norvegicus
Experiment: Open TG-GATES - Regimen: Daily Repeat
Assay type: toxicity, organism-based, Sprague-Dawley
Parameters: regimen Daily Repeat, gender Male, age 6 weeks
Details: in vivo, po, 300 mg/kg, route gavage, dose level Middle; for APTT / Bas / Eos / Fbg / Hb / Ht / Lym / MCH / MCHC / MCV / Mono / Neu / PT / Plat / RBC / Ret / WBC: tissue Blood; for KIDNEY_L / KIDNEY_R / KIDNEY_TOTAL: tissue Kidney; for LIVER: tissue Liver; for A/G / ALP / ALT / AST / BUN / CRE / Ca / Cl / DBIL / GLC / IP / K / LDH / Na / PL / RALB / TBIL / TC / TG / TP / gamma-GTP: tissue Plasma

COc1ccc(Cl)cc1C(=O)NCCc1ccc(S(=O)(=O)NC(=O)NC2CCCCC2)cc1 [GLYBURIDE]
TERMINAL_BW (72 h, time 3 day): 227.7 g
APTT (72 h, time 3 day): 19.4 s
Bas (72 h, time 3 day): 0%
Eos (72 h, time 3 day): 1%
Fbg (72 h, time 3 day): 222.4 mg/dL
Hb (72 h, time 3 day): 13.3 g/dL
Ht (72 h, time 3 day): 39.4%
Lym (72 h, time 3 day): 79.6%
MCH (72 h, time 3 day): 21.3 pg
MCHC (72 h, time 3 day): 33.7%
MCV (72 h, time 3 day): 63.2 fL
Mono (72 h, time 3 day): 2.8%
Neu (72 h, time 3 day): 16.4%
PT (72 h, time 3 day): 12.4 s
Plat (72 h, time 3 day): 120.5 x10_4/uL
RBC (72 h, time 3 day): 624 x10_4/ul
Ret (72 h, time 3 day): 5.4%
WBC (72 h, time 3 day): 97.9 x10_2/uL
KIDNEY_L (72 h, time 3 day): 1 g
KIDNEY_R (72 h, time 3 day): 1 g
KIDNEY_TOTAL (72 h, time 3 day): 2.1 g
LIVER (72 h, time 3 day): 10.5 g
A/G (72 h, time 3 day): 1.5
ALP (72 h, time 3 day): 912.2 IU/L
ALT (72 h, time 3 day): 40.4 IU/L
AST (72 h, time 3 day): 65.4 IU/L
BUN (72 h, time 3 day): 14.2 mg/dL
CRE (72 h, time 3 day): 0.4 mg/dL
Ca (72 h, time 3 day): 10.7 mg/dL
Cl (72 h, time 3 day): 103 meq/L
DBIL (72 h, time 3 day): 0.088 mg/dL
GLC (72 h, time 3 day): 194.6 mg/dL
IP (72 h, time 3 day): 7.1 mg/dL
K (72 h, time 3 day): 3.8 meq/L
LDH (72 h, time 3 day): 190.4 IU/L
Na (72 h, time 3 day): 140.6 meq/L
PL (72 h, time 3 day): 135.6 mg/dL
RALB (72 h, time 3 day): 3.3 g/dL
TBIL (72 h, time 3 day): 0.1 mg/dL
TC (72 h, time 3 day): 72 mg/dL
TG (72 h, time 3 day): 71.4 mg/dL
TP (72 h, time 3 day): 5.4 g/dL
gamma-GTP (72 h, time 3 day): 0.6 IU/L
TERMINAL_BW ([…], time 7 day): 262.8 g
TERMINAL_BW ([…], time 14 day): 322.5 g
TERMINAL_BW ([…], time 28 day): 400.8 g
APTT ([…], time 7 day): 20.6 s
Bas ([…], time 7 day): 0%
Eos ([…], time 7 day): 1%
Fbg ([…], time 7 day): 220.6 mg/dL
Hb ([…], time 7 day): 13.6 g/dL
Ht ([…], time 7 day): 40%
Lym ([…], time 7 day): 78.4%
MCH ([…], time 7 day): 20.6 pg
MCHC ([…], time 7 day): 34%
MCV ([…], time 7 day): 60.5 fL
Mono ([…], time 7 day): 2.4%
Neu ([…], time 7 day): 17.8%
PT ([…], time 7 day): 12.5 s
Plat ([…], time 7 day): 128.7 x10_4/uL
RBC ([…], time 7 day): 661.2 x10_4/ul
Ret ([…], time 7 day): 5.2%
WBC ([…], time 7 day): 99.5 x10_2/uL
APTT ([…], time 14 day): 21.4 s
Bas ([…], time 14 day): 0%
Eos ([…], time 14 day): 1%
Fbg ([…], time 14 day): 226.6 mg/dL
Hb ([…], time 14 day): 14.1 g/dL
Ht ([…], time 14 day): 41.1%
Lym ([…], time 14 day): 81.2%
MCH ([…], time 14 day): 20.5 pg
MCHC ([…], time 14 day): 34.4%
MCV ([…], time 14 day): 59.6 fL
Mono ([…], time 14 day): 3.2%
Neu ([…], time 14 day): 13.8%
PT ([…], time 14 day): 12.3 s
Plat ([…], time 14 day): 124.7 x10_4/uL
RBC ([…], time 14 day): 689.4 x10_4/ul
Ret ([…], time 14 day): 4.5%
WBC ([…], time 14 day): 105.4 x10_2/uL
APTT ([…], time 28 day): 21.1 s
Bas ([…], time 28 day): 0%
Eos ([…], time 28 day): 1%
Fbg ([…], time 28 day): 217.4 mg/dL
Hb ([…], time 28 day): 15 g/dL
Ht ([…], time 28 day): 42.8%
Lym ([…], time 28 day): 81.6%
MCH ([…], time 28 day): 19.6 pg
MCHC ([…], time 28 day): 34.9%
MCV ([…], time 28 day): 56.1 fL
Mono ([…], time 28 day): 2.2%
Neu ([…], time 28 day): 14.8%
PT ([…], time 28 day): 12.5 s
Plat ([…], time 28 day): 110.1 x10_4/uL
RBC ([…], time 28 day): 762.8 x10_4/ul
Ret ([…], time 28 day): 2.6%
WBC ([…], time 28 day): 109.6 x10_2/uL
KIDNEY_L ([…], time 7 day): 1.1 g
KIDNEY_R ([…], time 7 day): 1.1 g
KIDNEY_TOTAL ([…], time 7 day): 2.2 g
KIDNEY_L ([…], time 14 day): 1.2 g
KIDNEY_R ([…], time 14 day): 1.2 g
KIDNEY_TOTAL ([…], time 14 day): 2.5 g
KIDNEY_L ([…], time 28 day): 1.4 g
KIDNEY_R ([…], time 28 day): 1.3 g
KIDNEY_TOTAL ([…], time 28 day): 2.7 g
LIVER ([…], time 7 day): 12.1 g
LIVER ([…], time 14 day): 14 g
LIVER ([…], time 28 day): 16.8 g
A/G ([…], time 7 day): 1.5
ALP ([…], time 7 day): 861.6 IU/L
ALT ([…], time 7 day): 33.4 IU/L
AST ([…], time 7 day): 59.2 IU/L
BUN ([…], time 7 day): 14.6 mg/dL
CRE ([…], time 7 day): 0.4 mg/dL
Ca ([…], time 7 day): 10.8 mg/dL
Cl ([…], time 7 day): 102.4 meq/L
DBIL ([…], time 7 day): 0.084 mg/dL
GLC ([…], time 7 day): 195.6 mg/dL
IP ([…], time 7 day): 6.8 mg/dL
K ([…], time 7 day): 3.8 meq/L
LDH ([…], time 7 day): 163.8 IU/L
Na ([…], time 7 day): 140.6 meq/L
PL ([…], time 7 day): 140.6 mg/dL
RALB ([…], time 7 day): 3.3 g/dL
TBIL ([…], time 7 day): 0.1 mg/dL
TC ([…], time 7 day): 67.8 mg/dL
TG ([…], time 7 day): 87.6 mg/dL
TP ([…], time 7 day): 5.6 g/dL
gamma-GTP ([…], time 7 day): 1.2 IU/L
A/G ([…], time 14 day): 1.4
ALP ([…], time 14 day): 818.6 IU/L
ALT ([…], time 14 day): 40 IU/L
AST ([…], time 14 day): 64.2 IU/L
BUN ([…], time 14 day): 15.8 mg/dL
CRE ([…], time 14 day): 0.5 mg/dL
Ca ([…], time 14 day): 10.7 mg/dL
Cl ([…], time 14 day): 102.4 meq/L
DBIL ([…], time 14 day): 0.1 mg/dL
GLC ([…], time 14 day): 178 mg/dL
IP ([…], time 14 day): 6.8 mg/dL
K ([…], time 14 day): 4 meq/L
LDH ([…], time 14 day): 162.8 IU/L
Na ([…], time 14 day): 140.4 meq/L
PL ([…], time 14 day): 166.8 mg/dL
RALB ([…], time 14 day): 3.5 g/dL
TBIL ([…], time 14 day): 0.2 mg/dL
TC ([…], time 14 day): 80.8 mg/dL
TG ([…], time 14 day): 125 mg/dL
TP ([…], time 14 day): 6 g/dL
gamma-GTP ([…], time 14 day): 1.6 IU/L
A/G ([…], time 28 day): 1.3
ALP ([…], time 28 day): 681.2 IU/L
ALT ([…], time 28 day): 35.4 IU/L
AST ([…], time 28 day): 62.2 IU/L
BUN ([…], time 28 day): 15.4 mg/dL
CRE ([…], time 28 day): 0.5 mg/dL
Ca ([…], time 28 day): 10.5 mg/dL
Cl ([…], time 28 day): 104.4 meq/L
DBIL ([…], time 28 day): 0.1 mg/dL
GLC ([…], time 28 day): 213 mg/dL
IP ([…], time 28 day): 6.2 mg/dL
K ([…], time 28 day): 3.7 meq/L
LDH ([…], time 28 day): 150.8 IU/L
Na ([…], time 28 day): 142 meq/L
PL ([…], time 28 day): 140.6 mg/dL
RALB ([…], time 28 day): 3.4 g/dL
TBIL ([…], time 28 day): 0.2 mg/dL
TC ([…], time 28 day): 67.2 mg/dL
TG ([…], time 28 day): 114.4 mg/dL
TP ([…], time 28 day): 5.9 g/dL
gamma-GTP ([…], time 28 day): 0.6 IU/L
